Laboratory results as given in ChEMBL document CHEMBL3259753, “Synthesis, structure-activity relationships and biological evaluation of dehydroandrographolide and andrographolide derivatives as novel anti-hepatitis B virus agents” (Bioorg Med Chem Lett, 2014).

What was measured:
[1] = Cytotoxicity against human HepG2.2.15 cells by MTT assay; assay type: cell-based, HepG2 2.2.15
Hepatitis B virus [2] = experiment: Antiviral activity against HBV infected in human HepG2.2.15 cells assessed as inhibition of hepatitis B surface antigen secretion by ELISA; assay type: functional, organism-based; conditions: HepG2 2.2.15
Hepatitis B virus [3] = experiment: Antiviral activity against HBV infected in human HepG2.2.15 cells assessed as inhibition of hepatitis B e antigen secretion by ELISA; assay type: functional, organism-based; conditions: HepG2 2.2.15
Hepatitis B virus [4] = experiment: Antiviral activity against HBV infected in human HepG2.2.15 cells assessed as inhibition of DNA replication; assay type: functional, organism-based; conditions: HepG2 2.2.15
[5] = Selectivity index, ratio of CC50 for human HepG2.2.15 cells to IC50 for HBV infected in human HepG2.2.15 cells assessed as inhibition of DNA replication; assay type: functional
[6] = Selectivity index, ratio of CC50 for human HepG2.2.15 cells to IC50 for HBV infected in human HepG2.2.15 cells assessed as inhibition of hepatitis B surface antigen secretion; assay type: functional
[7] = Selectivity index, ratio of CC50 for human HepG2.2.15 cells to IC50 for HBV infected in human HepG2.2.15 cells assessed as inhibition of hepatitis B e antigen secretion; assay type: functional

Compound	CC50 [1] [µM]	IC50 (Hepatitis B virus [2]) [µM]	IC50 (Hepatitis B virus [3]) [µM]	IC50 (Hepatitis B virus [4]) [µM]	Ratio CC50/IC50 [5]	Ratio CC50/IC50 [6]	Ratio CC50/IC50 [7]
C=C1CC[C@@H]2[C@](C)(COC(=O)/C=C/c3ccccc3)[C@H](O)CC[C@@]2(C)[C@@H]1C/C=C1\C=COC1=O	271	210	516	46.6	5.8	–	–
C=C1CC[C@@H]2[C@](C)(COC(=O)c3ccco3)[C@H](OC(=O)c3ccco3)CC[C@@]2(C)[C@@H]1/C=C/C1=CCOC1=O	1110	1410	1860	242	4.6	–	–
C=C1CC[C@@H]2[C@](C)(COC(=O)CCCC(=O)O)[C@H](OC(=O)CCCC(=O)O)CC[C@@]2(C)[C@@H]1/C=C/C1=CCOC1=O	> 1710	> 1710	> 1710	> 429	–	–	–
C=C1CC[C@@H]2[C@](C)(COC(=O)c3ccccc3C(=O)O)[C@H](OC(=O)c3ccccc3C(=O)O)CC[C@@]2(C)[C@@H]1/C=C/C1=CCOC1=O	> 1620	–	–	104	>15.6	–	–
C[C@]1(CO)[C@H]2CC[C@@]3(CO3)[C@@H](/C=C/C3=CCOC3=O)[C@]2(C)CC[C@H]1O	1840	1290	–	78	23.6	1.4	–
C=C1CC[C@@H]2[C@](C)(COC(C)=O)[C@H](OC(C)=O)CC[C@@]2(C)[C@@H]1/C=C/C1=CCOC1=O	757	1010	1390	455	–	–	–
C=C1CC[C@@H]2[C@](C)(COC(=O)c3ccccc3C(=O)O)[C@H](O)CC[C@@]2(C)[C@@H]1C/C=C1\C=COC1=O	450	1320	293	39.4	11.4	–	1.5
C=C1CC[C@H]2[C@@](C)(CCC(=O)[C@@]2(C)C=O)[C@@H]1/C=C/C1=CCOC1=O	275	394	–	263	1.1	–	–
C=C1CC[C@@H]2[C@](C)(CO)[C@H](OC(=O)/C=C/c3ccccc3)CC[C@@]2(C)[C@@H]1C/C=C1\C=COC1=O	179	466	1170	30.7	5.8	–	–
C=C1CC[C@@H]2[C@](C)(COC(=O)c3ccco3)[C@H](O)CC[C@@]2(C)[C@@H]1C/C=C1\C=COC1=O	> 2150	–	> 949	21.4	>100.5	–	–
C=C1CC[C@@H]2[C@](C)(COC(=O)/C=C/c3cc(OC)c(OC)c(OC)c3)[C@H](O)CC[C@@]2(C)[C@@H]1C/C=C1\C=COC1=O	325	–	–	22.3	14.6	–	–
C=C1CC[C@@H]2[C@](C)(COC(=O)c3cccs3)[C@H](OC(=O)c3cccs3)CC[C@@]2(C)[C@@H]1C/C=C1\C=COC1=O	1370	1640	1220	–	–	–	1.1
C=C1CC[C@@H]2[C@](C)(CO)[C@H](OC(=O)c3ccco3)CC[C@@]2(C)[C@@H]1C/C=C1\C=COC1=O	42	777	586	25.2	1.7	–	–
C=C1CC[C@@H]2[C@](C)(CO)[C@H](O)CC[C@@]2(C)[C@@H]1C/C=C(/C(=O)O)[C@H](O)CO	182	–	–	23.2	7.8	–	–
C=C1CC[C@@H]2[C@](C)(COC(=O)COCC(=O)O)[C@H](OC(=O)COCC(=O)O)CC[C@@]2(C)[C@@H]1/C=C/C1=CCOC1=O	> 1930	> 1930	> 1930	> 483	–	–	–
C=C1CC[C@@H]2[C@](C)(C=O)[C@H](O)CC[C@@]2(C)[C@@H]1/C=C/C1=CCOC1=O	122	1840	1950	13.4	9.1	–	–
C=C1CC[C@@H]2[C@](C)(CO)[C@H](OC(=O)c3cccnc3)CC[C@@]2(C)[C@@H]1C/C=C1\C=COC1=O	337	261	714	38.4	8.8	1.3	–
C=C1CC[C@@H]2[C@](C)(COC(=O)c3cccnc3OC)[C@H](O)CC[C@@]2(C)[C@@H]1/C=C/C1=CCOC1=O	1340	> 2310	217	> 584	–	–	6.2
C=C1CC[C@@H]2[C@](C)(COC(=O)CCCC)[C@H](O)CC[C@@]2(C)[C@@H]1C/C=C1\C=COC1=O	225	565	2230	69.5	3.2	–	–
